Reference: patent publication US8192962B2, “Processes for detecting toxic substances” (Daikin Industries, Ltd., priority 2001, dated 2012)

Test system: Stress protein genes
Test: DNA chip mRNA expression in yeast, stress protein genes (Table 6)
Type: cell-based, Saccharomyces cerevisiae S288C
Experimental: Yeast (Saccharomyces cerevisiae S288C (α SUC2mal mel gap2 CUP1)) were incubated at 25° C. on YPD medium (yeast extract 1%, polypepton 2%, glucose 2%). One of toxic chemical substances was added to the cells at logarithmic growth phase, and the cells were further incubated for two hours. Cells were cultured without any chemical substance in the same condition, and were used as control. Concentrations of the chemical substances were defined to inhibit the growth of the yeast but not lead to death.
After completion of the incubation, the culture was centrifuged to collect the cells. To the cells, sodium acetate buffer (50 mM sodium acetate, 10 mM EDTA, 1% SDS) was added, and the mixture was shaken at 65° C. for five minutes, followed by returning to room temperature, and obtaining the supernatant, of which the procedures were repeated two times. To the supernatant, ½ amount of a solution of phenol/chloroform was added, and the mixture was centrifuged to give a supernatant, which was added with an equal amount of chloroform, and the mixture was centrifuged to give a supernatant. To the supernatant, an equal amount of isopropanol containing 0.3 M sodium acetate was added, and the mixture was allowed to stand at room temperature for 30 minutes, after which the mixture was centrifuged to give a sediment of the whole RNAs. Seventy % ethanol was added to the sediment, and the mixture was again centrifuged to give a sediment, which was then dried and dissolved in water. mRNA was isolated from the whole RNAs as followings. In view of the fact that a poly A chain is attached to the 3′ terminus of mRNA, a polynucleotide having a poly T structure which was immobilized on the surface of latex beads was used to trap the mRNA, and then the mRNA was washed and eluted with spine column (Oligotex-dT30<Super>mRNA Purification Kit, Takara). Reverse transcription of the mRNA was conducted with a reverse transcriptase (Super Script II Reverse Transcriptase; catalogue No. 18064-014, GibcoBRL) using fluorescence-labeled nucleotides to give cDNAs that were introduced with Cy3-dUTP or Cy5-dUTP during the reverse transcription.
The labeled cDNAs were dissolved in TE buffer (10mM Tris-HCl/1 mM EDTA, pH8.0), and the solution was dropped on the DNA chip containing the whole genes of yeast (DNA Chip Research Inc. Japan) so that the cDNAs were hybridized on the DNA chip at 65° C. for over 12 hours. The fluoresces intensity of the DNA chip was read with a scanner, and the ratio relative to the fluorescence intensity resulting from the absence of chemical substance was estimated as the following, which is shown in Tables 1 to 9: […]

Cl[C@H]1[C@H](Cl)[C@@H](Cl)[C@@H](Cl)[C@H](Cl)[C@H]1Cl [(7), γ-hexachlorocyclohexane]
The level of expressed mRNA in the presence of chemical substance/The level of expressed mRNA in the absence of chemical substance (yeast gene YAL005C): 1.2
The level of expressed mRNA in the presence of chemical substance/The level of expressed mRNA in the absence of chemical substance (yeast gene YAL015C): 1.2
The level of expressed mRNA in the presence of chemical substance/The level of expressed mRNA in the absence of chemical substance (yeast gene YBL075C): 1.3
The level of expressed mRNA in the presence of chemical substance/The level of expressed mRNA in the absence of chemical substance (yeast gene YBL093C): 1.3
The level of expressed mRNA in the presence of chemical substance/The level of expressed mRNA in the absence of chemical substance (yeast gene YBR044C): 1.5
The level of expressed mRNA in the presence of chemical substance/The level of expressed mRNA in the absence of chemical substance (yeast gene YBR054W): 0.6
The level of expressed mRNA in the presence of chemical substance/The level of expressed mRNA in the absence of chemical substance (yeast gene YBR067C): 1.1
The level of expressed mRNA in the presence of chemical substance/The level of expressed mRNA in the absence of chemical substance (yeast gene YBR072W): 6.6
The level of expressed mRNA in the presence of chemical substance/The level of expressed mRNA in the absence of chemical substance (yeast gene YBR126C): 2.3
The level of expressed mRNA in the presence of chemical substance/The level of expressed mRNA in the absence of chemical substance (yeast gene YBR169C): 2.5
The level of expressed mRNA in the presence of chemical substance/The level of expressed mRNA in the absence of chemical substance (yeast gene YCL035C): 2.7
The level of expressed mRNA in the presence of chemical substance/The level of expressed mRNA in the absence of chemical substance (yeast gene YCR021C): 0.9
The level of expressed mRNA in the presence of chemical substance/The level of expressed mRNA in the absence of chemical substance (yeast gene YCR060W): 2.4
The level of expressed mRNA in the presence of chemical substance/The level of expressed mRNA in the absence of chemical substance (yeast gene YCR083W): 1.8
The level of expressed mRNA in the presence of chemical substance/The level of expressed mRNA in the absence of chemical substance (yeast gene YDL022W): 1.5
The level of expressed mRNA in the presence of chemical substance/The level of expressed mRNA in the absence of chemical substance (yeast gene YDL025C): 1.0
The level of expressed mRNA in the presence of chemical substance/The level of expressed mRNA in the absence of chemical substance (yeast gene YDR033W): 0.8
The level of expressed mRNA in the presence of chemical substance/The level of expressed mRNA in the absence of chemical substance (yeast gene YDR077W): 0.7
The level of expressed mRNA in the presence of chemical substance/The level of expressed mRNA in the absence of chemical substance (yeast gene YDR098C): 1.5
The level of expressed mRNA in the presence of chemical substance/The level of expressed mRNA in the absence of chemical substance (yeast gene YDR155C): 1.2
The level of expressed mRNA in the presence of chemical substance/The level of expressed mRNA in the absence of chemical substance (yeast gene YDR258C): 3.9
The level of expressed mRNA in the presence of chemical substance/The level of expressed mRNA in the absence of chemical substance (yeast gene YDR293C): 0.9
The level of expressed mRNA in the presence of chemical substance/The level of expressed mRNA in the absence of chemical substance (yeast gene YDR436W): 1.2
The level of expressed mRNA in the presence of chemical substance/The level of expressed mRNA in the absence of chemical substance (yeast gene YDR513W): 1.6
The level of expressed mRNA in the presence of chemical substance/The level of expressed mRNA in the absence of chemical substance (yeast gene YDR519W): 1.9
The level of expressed mRNA in the presence of chemical substance/The level of expressed mRNA in the absence of chemical substance (yeast gene YEL030W): 0.9
The level of expressed mRNA in the presence of chemical substance/The level of expressed mRNA in the absence of chemical substance (yeast gene YEL039C): 0.6
The level of expressed mRNA in the presence of chemical substance/The level of expressed mRNA in the absence of chemical substance (yeast gene YER042W): 1.1
The level of expressed mRNA in the presence of chemical substance/The level of expressed mRNA in the absence of chemical substance (yeast gene YER057C): 1.4
The level of expressed mRNA in the presence of chemical substance/The level of expressed mRNA in the absence of chemical substance (yeast gene YER103W): 1.0
The level of expressed mRNA in the presence of chemical substance/The level of expressed mRNA in the absence of chemical substance (yeast gene YER125W): 0.8
The level of expressed mRNA in the presence of chemical substance/The level of expressed mRNA in the absence of chemical substance (yeast gene YFL014W): 5.5
The level of expressed mRNA in the presence of chemical substance/The level of expressed mRNA in the absence of chemical substance (yeast gene YFL016C): 1.4
The level of expressed mRNA in the presence of chemical substance/The level of expressed mRNA in the absence of chemical substance (yeast gene YFL020C): 1.4
The level of expressed mRNA in the presence of chemical substance/The level of expressed mRNA in the absence of chemical substance (yeast gene YFR052W): 2.2
The level of expressed mRNA in the presence of chemical substance/The level of expressed mRNA in the absence of chemical substance (yeast gene YGL073W): 1.3
The level of expressed mRNA in the presence of chemical substance/The level of expressed mRNA in the absence of chemical substance (yeast gene YGL115W): 1.4
The level of expressed mRNA in the presence of chemical substance/The level of expressed mRNA in the absence of chemical substance (yeast gene YGL181W): 1.3
The level of expressed mRNA in the presence of chemical substance/The level of expressed mRNA in the absence of chemical substance (yeast gene YGR088W): 0.8
The level of expressed mRNA in the presence of chemical substance/The level of expressed mRNA in the absence of chemical substance (yeast gene YHL028W): 2.1
The level of expressed mRNA in the presence of chemical substance/The level of expressed mRNA in the absence of chemical substance (yeast gene YHL046C): 1.3
The level of expressed mRNA in the presence of chemical substance/The level of expressed mRNA in the absence of chemical substance (yeast gene YHR030C): 1.8
The level of expressed mRNA in the presence of chemical substance/The level of expressed mRNA in the absence of chemical substance (yeast gene YHR057C): 1.3
The level of expressed mRNA in the presence of chemical substance/The level of expressed mRNA in the absence of chemical substance (yeast gene YHR104W): 1.5
The level of expressed mRNA in the presence of chemical substance/The level of expressed mRNA in the absence of chemical substance (yeast gene YIL011W): 0.6
